Data taken from patent US11464770B2, “Anticancer pharmaceutical composition” (NATIONAL CANCER CENTER, priority 2016, dated 2022).
Read-outs that look alike come from different tables or passages of the source.

What was measured:
[1] = test system: prostate cancer cell lines (e.g. DU145/TXR); assay: Cell based assay, cell viability (CellTiter-Glo), prostate cancer cell lines; details: Homo sapiens, 72 hours treatment, final concentration 0 to 2 μM
Procedure, shortened: (§1)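 Plated cells (24 h) → compound to 0–2 μM final → 72 h → CellTiter-Glo ATP luminescence.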

[2] = test system: RT4: human urinary bladder transitional cell papilloma; assay: Cell based assay, cytotoxicity in RT4 papilloma cells (selectivity); details: Homo sapiens, RT-4; RT4 cells
[3] = test system: blood cancer cell lines (e.g. HL-60, Jurkat, Raji, Ramos, Daudi, MOLT-4); assay: Cell based assay, cell viability (CellTiter-Glo), blood cancer cell lines; details: Homo sapiens
Procedure, shortened: as §1

[4] = test system: brain cancer cell lines; assay: Cell based assay, cell viability (CellTiter-Glo), brain cancer cell lines; details: Homo sapiens
[5] = CWR22 cells, read-out: IC50, prostate cancer cell line CWR22
[6] = DU-145, DU145/TXR cells, read-out: IC50, prostate cancer cell line DU145/TXR
[7] = DU-145, DU145 cells, read-out: IC50, prostate cancer cell line DU145
[8] = LNcap cells, read-out: IC50, prostate cancer cell line LNcap
[9] = MV4-11, blood cancer cell line MV-4-11, 72 hours, read-out: IC50, MV-4-11
[10] = blood cancer cell line Daudi, 72 hours, read-out: IC50, Daudi
[11] = blood cancer cell line HL-60, 72 hours, read-out: IC50, HL-60
[12] = blood cancer cell line Jurkat, 72 hours, read-out: IC50, Jurkat
[13] = blood cancer cell line MOLT-4, 72 hours, read-out: IC50, MOLT-4
[14] = blood cancer cell line Raji, 72 hours, read-out: IC50, Raji
[15] = blood cancer cell line Ramos (RA 1), 72 hours, read-out: IC50, Ramos (RA 1)
[16] = blood cancer cell line U-937, 72 hours, read-out: IC50, U-937
[17] = U138-MG, U-138 MG cell line, read-out: IC50, Brain cancer cell line U-138 MG
[18] = T98G cell line, read-out: IC50, Brain cancer cell line T98G
[19] = U-251 MG cell line, read-out: IC50, Brain cancer cell line U-251 MG
[20] = PC-3 cells, read-out: IC50, prostate cancer cell line PC-3

IC50 [1, 5] [nM]	IC50 [1, 6] [nM]	IC50 [1, 7] [nM]	IC50 [1, 8] [nM]	IC50 [3, 9] [nM]	IC50 [3, 10] [nM]	IC50 [3, 11] [nM]	IC50 [3, 12] [nM]	IC50 [3, 13] [nM]	IC50 [3, 14] [nM]	IC50 [3, 15] [nM]	IC50 [3, 16] [nM]	IC50 [4, 17] [nM]	IC50 [4, 18] [nM]	IC50 [4, 19] [nM]	IC50 [1, 20] [nM]	Compound	IC50 [2] [nM]
> 2000	> 2000	> 2000	> 2000	> 2000	> 2000	> 2000	> 2000	> 2000	> 2000	> 2000	> 2000	> 2000	> 10000	> 2000		CC(=O)c1c([S+]([O-])Cc2ccc(C(=O)c3ccccc3)cc2)[nH]c2c(Br)ccc(Cl)c2c1=O (stereo not shown) [Compound 63, 3-acetyl-2-((4-benzoylbenzyl)sulfinyl)-8-bromo-5-chloroquinolin-4(1H)-one]	> 10000
> 2000	> 2000	> 2000	> 2000	> 2000	> 2000	> 2000	> 2000	> 2000	> 2000	> 2000	> 2000	> 10000	> 10000	> 2000	> 2000	CC(=O)c1c([S+]([O-])CC#N)[nH]c2c(Br)ccc(Cl)c2c1=O (stereo not shown) [Compound 65, 2-((3-acetyl-8-bromo-5-chloro-4-oxo-1,4-dihydroquinolin-2-yl)sulfinyl)acetonitrile]	> 10000
> 2000	> 2000	> 2000	> 2000	> 2000	> 2000	> 2000	> 2000	> 2000	> 2000	> 2000	> 2000	> 10000	> 10000	> 2000	> 2000	CC(=O)c1c(SCC#N)[nH]c2c(Br)ccc(Cl)c2c1=O [Compound 66, 2-((3-acetyl-8-bromo-5-chloro-4-oxo-1,4-dihydroquinolin-2-yl)thio)acetonitrile]	> 10000
> 2000	> 2000	> 2000	> 2000	> 2000	> 2000	> 2000	> 2000	> 2000	> 2000	> 2000	> 2000	> 10000	> 10000	> 2000	> 2000	CC(=O)c1c(S/C=C\C(=O)O)[nH]c2c(Br)ccc(Cl)c2c1=O [Compound 67, (Z)-3-((3-acetyl-8-bromo-5-chloro-4-oxo-1,4-dihydroquinolin-2-yl)thio)acrylic acid]	> 10000
1620	940	830	> 2000	1300	1210	1710	1000	1070	1020	1660	> 2000	1140	> 2000	930	1240	CC(=O)c1c([S+]([O-])Cc2ccc(S(F)(F)(F)(F)F)cc2)[nH]c2c(Br)ccc(Cl)c2c1=O (stereo not shown) [Compound 68, 3-acetyl-8-bromo-5-chloro-2-((4-(pentafluoro-16-sulfanyl)benzyl)sulfinyl)quinolin-4(1H)-one]	> 10000
1870	1110	1000	> 2000	1470	1430	1880	1130	1300	1110	1870	> 2000	1540	> 10000	1160	1300	CC(=O)c1c([S+]([O-])Cc2ccc(S(F)(F)(F)(F)F)cc2F)[nH]c2c(Br)ccc(Cl)c2c1=O (stereo not shown) [Compound 69, 3-acetyl-8-bromo-5-chloro-2-((2-fluoro-4-(pentafluoro-16-sulfanyl)benzyl)sulfinyl)quinolin-4(1H)-one]	> 10000
> 2000	930	930	> 2000	> 2000	1420	> 2000	1120	1350	1330	> 2000	> 2000	1550	> 2000	1290	1480	CC(=O)c1c([S+]([O-])Cc2cccc(S(F)(F)(F)(F)F)c2)[nH]c2c(Br)ccc(Cl)c2c1=O (stereo not shown) [Compound 77, 3-acetyl-8-bromo-5-chloro-2-((3-(pentafluoro--sulfanyl)benzyl)sulfinyl)quinolin-4(1H)-one]	> 10000
